Data: US20180022780A1, “STABILIZATION ADRENOMEDULLIN DERIVATIVES AND USE THEREOF” (priority 2014, published 2018)
Bridge positions count the residues as written; N and C are the ends. Square brackets hold non-standard residues; d marks the D form. Peptide text beside a SMILES is read from it. * marks the point of attachment. Palmitoyl = CCCCCCCCCCCCCCCC(=O)*; Orn = NCCC[C@H](N)C(=O)O; Dab = NCC[C@H](N)C(=O)O

These molecules were tested against T1, CLR fused to EYFP and RAMP2 fused to ECFP (Homo sapiens, UniProt O60895+Q16602) (assay: cAMP assay (CRE luciferase reporter, HEK-293 cells transiently co-transfected with CLR and RAMP2)). Settings: Table 2, cAMP assay; HEK-293, CLR/RAMP2, CRE luciferase, 3 h stimulation, normalized to [G^14]ADM(14-52).
T1 construct: EYFP; ECFP; expressed in transfected cells; host or cells: HEK-293 cells, transient co-transfection
Assay type: cell-based
Method: HEK-293 cells (human embryonic kidney cells) were cultured in Ham's F-12/DMEM (1/1; v/v) containing 15% FCS under humidified atmosphere at 37° C. and 5% CO2 in 75 cm^2 cell culture flasks.
Cells were cultured in 75 cm^2 flasks to 70-80% confluency. 45 μl Metafectene® Pro was diluted in 900 μl Ham's F-12/DMEM (1/1; v/v) and incubated for 20 min at room temperature. 9000 ng plasmid containing DNA of CLR fused to EYFP and 3000 ng plasmid containing DNA of RAMP2 fused to ECFP were dissolved in 900 μl Ham's F-12/DMEM (1/1; v/v). The plasmid solution was mixed with the Metafectene® Pro solution and incubated for 25 min at room temperature. Medium was removed from the cells and replaced by 6 ml Ham's F-12/DMEM (1/1; v/v) containing 15% FCS. After addition of transfection solution the cells were incubated for 3 h under humidified atmosphere at 37° C. and 5% CO2.
For the second transfection 45 μl Metafectene® Pro was diluted in 900 μl Ham's F-12/DMEM (1/1; v/v) and incubated for 20 min at room temperature. 12000 ng of pGL4.29[luc2P/CRE/Hygro] plasmid containing DNA for the luciferase reporter gene luc2P (with CRE promotor region) were dissolved in 900 μl Ham's F-12/DMEM (1/1; v/v). The plasmid solution was mixed with the Metafectene® Pro solution and incubated for 25 min at room temperature. Medium was removed from the cells and replaced by 6 ml Ham's F-12/DMEM (1/1; v/v) containing 15% FCS. After addition of transfection solution the cells were incubated under humidified atmosphere at 37° C. and 5% CO2 over night.
For the coating of 96-well-plates 50 μl of a Poly-D-Lysine solution (1 ml stock solution of Poly-D-Lysin-hydrobromid/10 ml DPBS) were pipetted in each well and incubated for 40 min. After removal of the Poly-D-Lysine each well was washed with 50 μl DPBS. Transiently transfected cells were detached from the cell culture flask by removal of the medium, twofold washing with 5 m1 DPBS and resuspending in 13 ml Ham's F-12/DMEM (1/1; v/v) containing 15% FCS. 90000 to 120000 cells in 150 μl Ham's F-12/DMEM (1/1; v/v) containing 15% FCS were seeded per well and the plates were incubated under humidified atmosphere at 37° C. and 5% CO2 over night.
For each ligand a serial dilution giving eight different concentrations was prepared using Ham's F-12/DMEM (1/1; v/v). Before stimulation the medium on the cells was replaced by 100 μl Ham's F-12/DMEM (1/1; v/v) and the plates were incubated for 1 h under humidified atmosphere at 37° C. and 5% CO2. For stimulation the medium was removed again and the cells were incubated for 3 h in 80 μl of ligand-solution under humidified atmosphere at 37° C. and 5% CO2. In addition 80 μl of a 5 μM forskolin solution (in Ham's F-12/DMEM (1/1; v/v)) was used as a positive control and 80 μl of Ham's F-12/DMEM (1/1; v/v) as a negative control. Each concentration and the controls were tested as triplicates.
After 3 h of stimulation, the solutions were removed and the cells were washed with 50 μl of Ham's F-12/DMEM (1/1; v/v) per well. After 10 min incubation in 30 μl of Ham's F-12/DMEM (1/1; v/v) at room temperature, 30 μl of luciferase-solution (ONE-Glo™ Luciferase Assay System) was added and the luminescence was directly measured using an Infinite M200 (Tecan).
Data analysis of the luminescence measurement was carried out with GraphPad Prism 5. Therefore the measured luminescence values of each plate were first corrected on the base of the respective average of forskolin stimulation. Afterwards they were normalized to [G^14]ADM(14-52) which was used as standard peptide in every assay. After correction and normalization data was analysed using non-linear regression giving dose-response curves for each tested ligand.

T1 sequence (Q16602 23-461): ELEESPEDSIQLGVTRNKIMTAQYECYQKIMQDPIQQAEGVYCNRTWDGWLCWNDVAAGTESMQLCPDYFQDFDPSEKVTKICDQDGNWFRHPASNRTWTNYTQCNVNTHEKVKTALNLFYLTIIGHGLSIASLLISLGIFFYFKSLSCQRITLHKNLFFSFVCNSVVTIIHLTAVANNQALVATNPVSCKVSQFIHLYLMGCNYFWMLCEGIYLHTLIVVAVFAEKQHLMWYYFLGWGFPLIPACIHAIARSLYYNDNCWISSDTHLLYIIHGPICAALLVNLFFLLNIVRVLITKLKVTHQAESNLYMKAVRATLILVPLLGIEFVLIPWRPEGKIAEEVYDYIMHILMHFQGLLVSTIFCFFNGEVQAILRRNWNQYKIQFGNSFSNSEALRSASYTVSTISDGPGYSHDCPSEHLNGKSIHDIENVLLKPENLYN
T1 sequence (O60895 43-175): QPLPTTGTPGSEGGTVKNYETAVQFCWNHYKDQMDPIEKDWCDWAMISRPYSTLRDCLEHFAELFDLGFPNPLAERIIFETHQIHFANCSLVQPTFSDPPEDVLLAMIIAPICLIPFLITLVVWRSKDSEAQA

Point of comparison: `CC[C@H](C)[C@H](NC(=O)[C@H](CCC(N)=O)NC(=O)[C@H](Cc1c[nH]cn1)NC(=O)[C@H](C)NC(=O)[C@H](CC(C)C)NC(=O)[C@H](CCCCN)NC(=O)[C@H](CCC(N)=O)NC(=O)[C@@H](NC(=O)[C@@H](NC(=O)[C@@H]1CCCNC(=O)C[C@H](NC(=O)CNC(=O)CN)C(=O)N[C@@H](CCCNC(=N)N)C(=O)N[C@@H](Cc2ccccc2)C(=O)NCC(=O)N[C@@H]([C@@H](C)O)C(=O)N1)[C@@H](C)O)C(C)C)C(=O)N[C@@H](Cc1ccc(O)cc1)C(=O)N[C@@H](CCC(N)=O)C(=O)N[C@@H](Cc1ccccc1)C(=O)N[C@H](C(=O)N[C@@H](CC(=O)O)C(=O)N[C@@H](CCCCN)C(=O)N[C@@H](CC(=O)O)C(=O)N[C@@H](CCCCN)C(=O)N[C@@H](CC(=O)O)C(=O)N[C@@H](CC(N)=O)C(=O)N[C@H](C(=O)N[C@@H](C)C(=O)N1CCC[C@H]1C(=O)N[C@@H](CCCNC(=N)N)C(=O)N[C@@H](CO)C(=O)N[C@@H](CCCCN)C(=O)N[C@H](C(=O)N[C@@H](CO)C(=O)N1CCC[C@H]1C(=O)N[C@@H](CCC(N)=O)C(=O)NCC(=O)N[C@@H](Cc1ccc(O)cc1)C(N)=O)[C@@H](C)CC)C(C)C)[C@@H](C)O` [Example 8, ((2S,5S,11S,14S,21S)-21-(2-(2-aminoacetamido)acetamido)-5-benzyl-2-(3-guanidinopropyl)-11-((R)-1-hydroxyethyl)-3,6,9,12,19,22-hexaoxo-1,4,7,10,13,18-hexaazacyclodocosane-14-carbonyl)-L-threonyl-ADM(22-52)] (H-GGDRFGT[Orn]TVQKLAHQIYQFTDKDKDNVAPRSKISPQGY-NH2; lactam 3-8), EC50 20 nM. Against it:
- CC[C@H](C)[C@H](NC(=O)[C@H](CCC(N)=O)NC(=O)[C@H](Cc1c[nH]cn1)NC(=O)[C@H](C)NC(=O)[C@H](CC(C)C)NC(=O)[C@H](CCCCN)NC(=O)[C@H](CCC(N)=O)NC(=O)[C@@H](NC(=O)[C@@H](NC(=O)[C@@H]1CCNC(=O)CC[C@H](NC(=O)CNC(=O)CN)C(=O)N[C@@H](CCCNC(=N)N)C(=O)N[C@@H](Cc2ccccc2)C(=O)NCC(=O)N[C@@H]([C@@H](C)O)C(=O)N1)[C@@H](C)O)C(C)C)C(=O)N[C@@H](Cc1ccc(O)cc1)C(=O)N[C@@H](CCC(N)=O)C(=O)N[C@@H](Cc1ccccc1)C(=O)N[C@H](C(=O)N[C@@H](CC(=O)O)C(=O)N[C@@H](CCCCN)C(=O)N[C@@H](CC(=O)O)C(=O)N[C@@H](CCCCN)C(=O)N[C@@H](CC(=O)O)C(=O)N[C@@H](CC(N)=O)C(=O)N[C@H](C(=O)N[C@@H](C)C(=O)N1CCC[C@H]1C(=O)N[C@@H](CCCNC(=N)N)C(=O)N[C@@H](CO)C(=O)N[C@@H](CCCCN)C(=O)N[C@H](C(=O)N[C@@H](CO)C(=O)N1CCC[C@H]1C(=O)N[C@@H](CCC(N)=O)C(=O)NCC(=O)N[C@@H](Cc1ccc(O)cc1)C(N)=O)[C@@H](C)CC)C(C)C)[C@@H](C)O [Example 10, ((2S,5S,11S,14S,21S)-21-(2-(2-aminoacetamido)acetamido)-5-benzyl-2-(3-guanidinopropyl)-11-((R)-1-hydroxyethyl)-3,6,9,12,18,22-hexaoxo-1,4,7,10,13,17-hexaazacyclodocosane-14-carbonyl)-L-threonyl-ADM(22-52)] (H-GGERFGT[Dab]TVQKLAHQIYQFTDKDKDNVAPRSKISPQGY-NH2; lactam 3-8) — 2-fold higher, 41 nM
- CC[C@H](C)[C@H](NC(=O)[C@H](CCC(N)=O)NC(=O)[C@H](Cc1c[nH]cn1)NC(=O)[C@H](C)NC(=O)[C@H](CC(C)C)NC(=O)[C@H](CCCCN)NC(=O)[C@H](CCC(N)=O)NC(=O)[C@@H](NC(=O)[C@@H](NC(=O)[C@@H]1CCC(=O)NCC[C@H](NC(=O)CNC(=O)CN)C(=O)N[C@@H](CCCNC(=N)N)C(=O)N[C@@H](Cc2ccccc2)C(=O)NCC(=O)N[C@@H]([C@@H](C)O)C(=O)N1)[C@@H](C)O)C(C)C)C(=O)N[C@@H](Cc1ccc(O)cc1)C(=O)N[C@@H](CCC(N)=O)C(=O)N[C@@H](Cc1ccccc1)C(=O)N[C@H](C(=O)N[C@@H](CC(=O)O)C(=O)N[C@@H](CCCCN)C(=O)N[C@@H](CC(=O)O)C(=O)N[C@@H](CCCCN)C(=O)N[C@@H](CC(=O)O)C(=O)N[C@@H](CC(N)=O)C(=O)N[C@H](C(=O)N[C@@H](C)C(=O)N1CCC[C@H]1C(=O)N[C@@H](CCCNC(=N)N)C(=O)N[C@@H](CO)C(=O)N[C@@H](CCCCN)C(=O)N[C@H](C(=O)N[C@@H](CO)C(=O)N1CCC[C@H]1C(=O)N[C@@H](CCC(N)=O)C(=O)NCC(=O)N[C@@H](Cc1ccc(O)cc1)C(N)=O)[C@@H](C)CC)C(C)C)[C@@H](C)O [Example 11, ((2S,5S,11S,14S,21S)-21-(2-(2-aminoacetamido)acetamido)-5-benzyl-2-(3-guanidinopropyl)-11-((R)-1-hydroxyethyl)-3,6,9,12,17,22-hexaoxo-1,4,7,10,13,18-hexaazacyclodocosane-14-carbonyl)-L-threonyl-ADM(22-52)] (H-GG[Dab]RFGTETVQKLAHQIYQFTDKDKDNVAPRSKISPQGY-NH2; lactam 3-8) — 4.2-fold higher, 84 nM
- CCCCCCCCCCCCCCCC(=O)NCCCC[C@H](N)C(=O)NCC(=O)N[C@H]1CCC(=O)NCCCC[C@@H](C(=O)N[C@H](C(=O)N[C@H](C(=O)N[C@@H](CCC(N)=O)C(=O)N[C@@H](CCCCN)C(=O)N[C@@H](CC(C)C)C(=O)N[C@@H](C)C(=O)N[C@@H](Cc2c[nH]cn2)C(=O)N[C@@H](CCC(N)=O)C(=O)N[C@H](C(=O)N[C@@H](Cc2ccc(O)cc2)C(=O)N[C@@H](CCC(N)=O)C(=O)N[C@@H](Cc2ccccc2)C(=O)N[C@H](C(=O)N[C@@H](CC(=O)O)C(=O)N[C@@H](CCCCN)C(=O)N[C@@H](CC(=O)O)C(=O)N[C@@H](CCCCN)C(=O)N[C@@H](CC(=O)O)C(=O)N[C@@H](CC(N)=O)C(=O)N[C@H](C(=O)N[C@@H](C)C(=O)N2CCC[C@H]2C(=O)N[C@@H](CCCNC(=N)N)C(=O)N[C@@H](CO)C(=O)N[C@@H](CCCCN)C(=O)N[C@H](C(=O)N[C@@H](CO)C(=O)N2CCC[C@H]2C(=O)N[C@@H](CCC(N)=O)C(=O)NCC(=O)N[C@@H](Cc2ccc(O)cc2)C(N)=O)[C@@H](C)CC)C(C)C)[C@@H](C)O)[C@@H](C)CC)C(C)C)[C@@H](C)O)NC(=O)[C@H]([C@@H](C)O)NC(=O)CNC(=O)[C@H](Cc2ccccc2)NC(=O)[C@H](CCCNC(=N)N)NC1=O [Example 12, ((2S,5S,11S,14S,23S)-23-(2-((S)-2-amino-6-palmitamidohexanamido)acetamido)-5-benzyl-2-(3-guanidinopropyl)-11-((R)-1-hydroxyethyl)-3,6,9,12,20,24-hexaoxo-1,4,7,10,13,19-hexaazacyclotetracosane-14-carbonyl)-L-threonyl-ADM(22-52)] (H-K(Palmitoyl)GERFGTKTVQKLAHQIYQFTDKDKDNVAPRSKISPQGY-NH2; lactam 3-8) — within 1.5-fold, 29 nM
